# Key:
# IKZF2 = IKZF2 (Homo sapiens, UniProt Q96SW2+Q9UKS7); assay: Prolabel quantification of IKZF2 protein levels in 293GT cells; format: cell-based; conditions: for inhibition at 10 µM: 24 h, read-out: IKZF2 % protein reduction at 10 μM, 24 h; for inhibition at 10 µM / DC50: 293GT cells; for DC50: Prolabel assay, read-out: IKZF2 EC50
# Method: (§1) The Prolabel system from DiscoverX was used to develop high-throughput and quantitative assays to measure changes in IKZF1, IKZF2 and GSPT1 protein levels in response to compounds. The prolabel tag was derived from the alpha fragment of beta galactosidase and has the following protein sequence: mssnslavvlqrrdwenpgvtqlnrlaahppfaswrnseeartdrpsqqlrslnge. The complementary fragment of beta-galactosidase (from DiscoverX), is added to the prolabel tag to form an active beta galactosidase enzyme whose activity can be precisely measured. In this way, the levels of a fusion protein with the prolabel tag can be quantified in cell lysates.
# (§2) Lentiviral vectors, based on the Invitrogen pLenti6.2/V5 DEST backbone, were constructed that placed the prolabel tag upstream of IKZF1, IKZF2 or GSPT1 and expressed the fusion protein from a CMV promoter.
# (§3) To ensure moderate and consistent expression of the prolabel fusion proteins across all cells in the population, stable cell lines were constructed from cells expressing a single copy of the construct. Lentivirus packaged with the constructs was made using the Virapower kit from Invitrogen.
# (§4) The levels of prolabel tagged fusion proteins in compound treated cell lines were measured as follows:
# (§5) Day 1, Cells were diluted to 1.0×10^6 cells/ml in normal growth medium. 17.5 μL of cells were plated in each well of a solid white 384 well plate. Plates were incubated overnight in a 37° C. tissue culture incubator.
# (§6) Day 2, Serial dilutions of compounds were made in 384 well plates from 10 mM stocks. 15 μL of DMSO was added to each well of a 384 well plate. In the first column 15 μL of stock compound was added. The solution was mixed and 15 μL was transferred to the next column. This was repeated until 20 two-fold dilutions were prepared. 2.5 μL of diluted compounds were transferred into 60 μL of cell culture medium in another 384 well plate, and mixed well. 2.5 μL of this mixture was added to the plated cells. The final DMSO concentration was 0.5% and the highest concentration of compound was 50 μM. Plates were incubated overnight (e.g., about 14 h, 18 h, or 24 h) in a 37° C. tissue culture incubator.
# (§7) Day 3, Plates were removed from the incubator and allowed to equilibrate at rt for 30 minutes. Prolabel substrate (DiscoverX PathHunter Prolabel Detection Kit, User manual: 93-0180) was added as described by the manufacturers protocols. Plates were incubated at rt for three hours and luminescence was read using an Envision reader (Perkin Elmer) Data was analyzed and visualized using the Spotfire software package.
# IKZF1 = IKZF1 (Homo sapiens, UniProt Q13422+Q96SW2); assay: Prolabel quantification of IKZF1 protein levels in 293GT cells; format: cell-based; conditions: Prolabel assay, read-out: IKZF1 EC50
# Chain of IKZF1 (Q13422 whole entry): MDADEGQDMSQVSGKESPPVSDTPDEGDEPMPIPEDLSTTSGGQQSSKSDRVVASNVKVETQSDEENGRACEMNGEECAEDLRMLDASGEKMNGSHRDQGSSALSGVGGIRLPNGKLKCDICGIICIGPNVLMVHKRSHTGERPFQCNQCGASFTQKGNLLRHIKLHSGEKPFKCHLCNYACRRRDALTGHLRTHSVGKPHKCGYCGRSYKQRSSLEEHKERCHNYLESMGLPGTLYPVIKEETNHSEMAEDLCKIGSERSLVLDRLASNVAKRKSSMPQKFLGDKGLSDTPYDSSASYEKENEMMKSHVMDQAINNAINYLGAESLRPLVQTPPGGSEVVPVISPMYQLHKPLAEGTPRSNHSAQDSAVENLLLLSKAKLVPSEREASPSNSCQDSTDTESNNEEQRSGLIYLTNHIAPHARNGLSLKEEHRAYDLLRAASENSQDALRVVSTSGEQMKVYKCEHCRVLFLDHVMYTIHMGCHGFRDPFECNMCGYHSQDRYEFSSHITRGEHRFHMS
# Chain of IKZF1 (Q96SW2 whole entry): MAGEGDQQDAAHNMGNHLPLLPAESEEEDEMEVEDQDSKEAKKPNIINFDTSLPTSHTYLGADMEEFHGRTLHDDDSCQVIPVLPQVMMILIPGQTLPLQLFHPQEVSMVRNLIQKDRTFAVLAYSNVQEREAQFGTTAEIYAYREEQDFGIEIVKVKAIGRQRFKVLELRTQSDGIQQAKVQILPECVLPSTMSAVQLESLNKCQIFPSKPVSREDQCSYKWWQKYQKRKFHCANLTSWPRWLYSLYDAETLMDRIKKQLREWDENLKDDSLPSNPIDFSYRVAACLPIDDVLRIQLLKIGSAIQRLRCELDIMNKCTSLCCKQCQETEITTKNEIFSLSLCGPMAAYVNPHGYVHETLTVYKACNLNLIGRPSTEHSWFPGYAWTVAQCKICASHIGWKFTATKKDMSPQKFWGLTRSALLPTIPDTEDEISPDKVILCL
# Chain of IKZF1 (Q16531 whole entry partner): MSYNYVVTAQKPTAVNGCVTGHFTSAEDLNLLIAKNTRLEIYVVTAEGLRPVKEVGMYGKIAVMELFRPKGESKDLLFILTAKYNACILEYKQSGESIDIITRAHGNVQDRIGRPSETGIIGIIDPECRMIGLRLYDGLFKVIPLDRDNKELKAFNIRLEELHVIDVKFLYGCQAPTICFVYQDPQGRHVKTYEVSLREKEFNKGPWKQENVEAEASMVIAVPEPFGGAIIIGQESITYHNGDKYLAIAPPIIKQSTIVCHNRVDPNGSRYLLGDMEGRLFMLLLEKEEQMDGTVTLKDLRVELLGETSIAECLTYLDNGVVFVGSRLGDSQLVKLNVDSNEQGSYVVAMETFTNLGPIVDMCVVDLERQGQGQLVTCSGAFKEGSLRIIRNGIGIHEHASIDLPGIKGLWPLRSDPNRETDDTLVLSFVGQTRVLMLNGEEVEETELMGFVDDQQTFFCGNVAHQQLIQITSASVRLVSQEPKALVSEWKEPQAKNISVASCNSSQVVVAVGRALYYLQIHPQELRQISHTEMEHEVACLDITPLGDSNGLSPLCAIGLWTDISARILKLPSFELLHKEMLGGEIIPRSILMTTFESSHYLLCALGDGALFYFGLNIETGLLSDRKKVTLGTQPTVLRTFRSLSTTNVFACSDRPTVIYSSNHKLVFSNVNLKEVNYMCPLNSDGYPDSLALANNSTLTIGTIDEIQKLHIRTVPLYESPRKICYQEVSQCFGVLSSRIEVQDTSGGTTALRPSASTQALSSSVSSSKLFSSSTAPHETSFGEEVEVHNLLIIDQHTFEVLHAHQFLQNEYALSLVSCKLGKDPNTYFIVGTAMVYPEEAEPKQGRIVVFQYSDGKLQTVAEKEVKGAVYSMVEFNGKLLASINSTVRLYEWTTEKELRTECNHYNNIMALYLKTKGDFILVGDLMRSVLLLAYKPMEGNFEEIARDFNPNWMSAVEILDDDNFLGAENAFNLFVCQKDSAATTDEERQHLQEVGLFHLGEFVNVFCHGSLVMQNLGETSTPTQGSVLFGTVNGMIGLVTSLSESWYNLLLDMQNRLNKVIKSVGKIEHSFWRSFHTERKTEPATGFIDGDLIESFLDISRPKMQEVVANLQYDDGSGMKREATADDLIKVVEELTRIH
# Method: as §1, §2, §3, §4, §5, §6, §7
# Chain of IKZF2 (Q9UKS7 whole entry, the tested form may be a part): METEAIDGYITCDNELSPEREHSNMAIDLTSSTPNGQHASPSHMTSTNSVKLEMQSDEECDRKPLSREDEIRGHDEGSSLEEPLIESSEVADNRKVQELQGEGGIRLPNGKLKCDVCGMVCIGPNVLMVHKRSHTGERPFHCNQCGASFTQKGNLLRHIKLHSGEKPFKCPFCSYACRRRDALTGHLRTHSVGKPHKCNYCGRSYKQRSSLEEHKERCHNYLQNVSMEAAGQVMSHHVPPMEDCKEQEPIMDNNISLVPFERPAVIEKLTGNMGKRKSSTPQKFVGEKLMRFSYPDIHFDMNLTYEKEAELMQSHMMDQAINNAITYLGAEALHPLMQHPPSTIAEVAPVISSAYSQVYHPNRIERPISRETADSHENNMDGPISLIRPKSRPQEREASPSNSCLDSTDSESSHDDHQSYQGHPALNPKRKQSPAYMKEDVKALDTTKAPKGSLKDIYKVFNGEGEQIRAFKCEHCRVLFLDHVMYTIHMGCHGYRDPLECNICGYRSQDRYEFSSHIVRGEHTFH
# Chain of IKZF2 (Q96SW2 whole entry, the tested form may be a part): as the sequence (Q96SW2 whole entry) above
# Chain of IKZF2 (Q16531 whole entry partner, the tested form may be a part): as the sequence (Q16531 whole entry partner) above
inhibition at 10 µM (IKZF2) [%],DC50 (IKZF2) [nM],DC50 (IKZF1) [nM],"IKZF2 protein levels as compared to the control (DMSO) (IKZF2; Prolabel assay in HEK293GT cells, bar graph)",SMILES
60,72,> 30000,,"Cn1cc(CN2CCC(c3ccc4c(c3)CN(C3CCC(=O)NC3=O)C4=O)CC2)cn1 (stereo not shown) [Compound I-115, 3-(5-(1((1-methyl-1H-pyrazol-4-yl)methyl)piperidin-4-yl)-1-oxoisoindolin-2-yl)piperidine-2,6-dione]"
40,210,> 30000,,"O=C1CCC(N2Cc3cc(C4CCN(Cc5ccc(C(F)(F)F)cn5)CC4)ccc3C2=O)C(=O)N1 (stereo not shown) [Compound I-78, 3-(1-oxo-5-(1-((5-(trifluoromethyl)pyridin-2-yl)methyl)piperidin-4-yl)isoindolin-2-yl)piperidine-2,6-dione]"
70,12,> 30000,,"CC(C)Oc1ccc(CN2CCC(c3ccc4c(c3)CN(C3CCC(=O)NC3=O)C4=O)CC2)cn1 (stereo not shown) [Compound I-285, 3-(5-(1-((6-isopropoxypyridin-3-yl)methyl)piperidin-4-yl)-1-oxoisoindolin-2-yl)piperidine-2,6-dione]"
80,52,> 30000,,"O=C1CCC(N2Cc3cc(C4CCN(Cc5ccc6c(c5)OCCO6)CC4)ccc3C2=O)C(=O)N1 (stereo not shown) [Compound I-83, 3-(5-(1-((2,3-dihydrobenzo[b][1,4]dioxin-6-yl)methyl)piperidin-4-yl)-1-oxoisoindolin-2-yl)piperidine-2,6-dione]"
40,680,> 30000,,"COC(=O)c1coc(CN2CCC(c3ccc4c(c3)CN(C3CCC(=O)NC3=O)C4=O)CC2)n1 (stereo not shown) [Compound I-254, methyl 2-((4-(2-(2,6-dioxopiperidin-3-yl)-1-oxoisoindolin-5-yl)piperidin-1-yl)methyl)oxazole-4-carboxylate]"
55,41,> 30000,,"N#Cc1ccccc1CN1CCC(c2ccc3c(c2)CN(C2CCC(=O)NC2=O)C3=O)CC1 (stereo not shown) [Compound I-38, 2-((4-(2-(2,6-dioxopiperidin-3-yl)-1-oxoisoindolin-5-yl)piperidin-1-yl)methyl)benzonitrile]"
75,33,> 30000,,"O=C1CCC(N2Cc3cc(C4CCN(Cc5cc(-c6ccccn6)n[nH]5)CC4)ccc3C2=O)C(=O)N1 (stereo not shown) [Compound I-201, 3-(1-oxo-5-(1-((3-(pyridin-2-yl)-1H-pyrazol-5-yl)methyl)piperidin-4-yl)isoindolin-2-yl)piperidine-2,6-dione]"
55,2100,> 30000,,"O=C1CCC(N2Cc3cc(C4CCN(Cc5cccc(C(=O)O)c5)CC4)ccc3C2=O)C(=O)N1 (stereo not shown) [Compound I-74, 3-((4-(2-(2,6-dioxopiperidin-3-yl)-1-oxoisoindolin-5-yl)piperidin-1-yl)methyl)benzoic acid]"
60,62,> 30000,,"CCn1ccc(CN2CCC(c3ccc4c(c3)CN(C3CCC(=O)NC3=O)C4=O)CC2)n1 (stereo not shown) [Compound I-121, 3-(5-(1-((1-ethyl-1H-pyrazol-3-yl)methyl)piperidin-4-yl)-1-oxoisoindolin-2-yl)piperidine-2,6-dione]"
80,19,> 30000,,"O=C1CCC(N2Cc3cc(C4CCN(Cc5ccc6cc[nH]c6n5)CC4)ccc3C2=O)C(=O)N1 (stereo not shown) [Compound I-140, 3-(5-(1-((1H-pyrrolo[2,3-b]pyridin-6-yl)methyl)piperidin-4-yl)-1-oxoisoindolin-2-yl)piperidine-2,6-dione]"
80,11,> 25000,decreased,"O=C1CCC(N2Cc3cc(C4CCN(Cc5ccc6[nH]ncc6c5)CC4)ccc3C2=O)C(=O)N1 (stereo not shown) [Compound I-219, 3-(5-(1-((1H-indazol-5-yl)methyl)piperidin-4-yl)-1-oxoisoindolin-2-yl)piperidine-2,6-dione]"
60,170,> 30000,,"O=C1CCC(N2Cc3cc(C4CCN(Cc5cc(C6CC6)[nH]n5)CC4)ccc3C2=O)C(=O)N1 (stereo not shown) [Compound I-146, 3-(5-(1-((5-cyclopropyl-1H-pyrazol-3-yl)methyl)piperidin-4-yl)-1-oxoisoindolin-2-yl)piperidine-2,6-dione]"
50,67,> 30000,,"CC1CN(Cc2ccccc2)CCC1c1ccc2c(c1)CN(C1CCC(=O)NC1=O)C2=O (stereo not shown) [Compound I-187, 3-(5-(1-benzyl-3-methylpiperidin-4-yl)-1-oxoisoindolin-2-yl)piperidine-2,6-dione]"
65,7,> 30000,,"O=C1CCC(N2Cc3cc(C4CCN(Cc5cc(F)cc(F)c5)CC4)ccc3C2=O)C(=O)N1 (stereo not shown) [Compound I-26, 3-(5-(1-(3,5-difluorobenzyl)piperidin-4-yl)-1-oxoisoindolin-2-yl)piperidine-2,6-dione]"
75,69,> 30000,,"Nc1ccc(CN2CCC(c3ccc4c(c3)CN(C3CCC(=O)NC3=O)C4=O)CC2)cn1 (stereo not shown) [Compound I-123, 3-(5-(1-((6-aminopyridin-3-yl)methyl)piperidin-4-yl)-1-oxoisoindolin-2-yl)piperidine-2,6-dione]"
50,19,> 30000,,"O=C1CCC(N2Cc3cc(C4CCN(Cc5cc(C(F)(F)F)cc(C(F)(F)F)c5)CC4)ccc3C2=O)C(=O)N1 (stereo not shown) [Compound I-215, 3-(5-(1-(3,5-bis(trifluoromethyl)benzyl)piperidin-4-yl)-1-oxoisoindolin-2-yl)piperidine-2,6-dione]"
70,36,> 30000,,"O=C1CCC(N2Cc3cc(C4CCN(Cc5cc(F)ccc5F)CC4)ccc3C2=O)C(=O)N1 (stereo not shown) [Compound I-29, 3-(5-(1-(2,5-difluorobenzyl)piperidin-4-yl)-1-oxoisoindolin-2-yl)piperidine-2,6-dione]"
70,16,> 30000,,"COCc1ccc(CN2CCC(c3ccc4c(c3)CN(C3CCC(=O)NC3=O)C4=O)CC2)cc1 (stereo not shown) [Compound I-248, 3-(5-(1-(4-(methoxymethyl)benzyl)piperidin-4-yl)-1-oxoisoindolin-2-yl)piperidine-2,6-dione]"
60,53,> 30000,,"O=C1CCC(N2Cc3cc(C4CCN(Cc5ccccn5)CC4)ccc3C2=O)C(=O)N1 (stereo not shown) [Compound I-58, 3-(1-oxo-5-(1-(pyridin-2-ylmethyl)piperidin-4-yl)isoindolin-2-yl)piperidine-2,6-dione]"
40,37,> 50000,,"Cc1cc(CN2CCC(c3ccc4c(c3)CN(C3CCC(=O)NC3=O)C4=O)CC2)on1 (stereo not shown) [Compound I-245, 3-(5-(1-((3-methylisoxazol-5-yl)methyl)piperidin-4-yl)-1-oxoisoindolin-2-yl)piperidine-2,6-dione]"
55,4500,> 30000,,"O=C1CCC(N2Cc3cc(C4CCN(Cc5ccc(C(=O)O)cc5)CC4)ccc3C2=O)C(=O)N1 (stereo not shown) [Compound I-72, 4-((4-(2-(2,6-dioxopiperidin-3-yl)-1-oxoisoindolin-5-yl)piperidin-1-yl)methyl)benzoic acid]"
60,140,320,,"CC(C)Oc1cccc(CN2CCC(c3ccc4c(c3)CN(C3CCC(=O)NC3=O)C4=O)CC2)n1 (stereo not shown) [Compound I-301, 3-(5-(1-((6-isopropoxypyridin-2-yl)methyl)piperidin-4-yl)-1-oxoisoindolin-2-yl)piperidine-2,6-dione]"
35,67,> 30000,,"O=C1CCC(N2Cc3cc(C4CCN(Cc5nc6ccccc6s5)CC4)ccc3C2=O)C(=O)N1 (stereo not shown) [Compound I-200, 3-(5-(1-(benzo[d]thiazol-2-ylmethyl)piperidin-4-yl)-1-oxoisoindolin-2-yl)piperidine-2,6-dione]"
60,490,> 30000,,"O=C1CCC(N2Cc3cc(C4CCN(Cc5ccns5)CC4)ccc3C2=O)C(=O)N1 (stereo not shown) [Compound I-290, 3-(5-(1-(isothiazol-5-ylmethyl)piperidin-4-yl)-1-oxoisoindolin-2-yl)piperidine-2,6-dione]"
